The test system of one data set is Entamoeba histolytica. Nature of the data set: Entamoeba histolytica culture growth. The data set is classed as cell-based. The settings on record: 72 h, read-out: concentration that completely kills the cells. How it is done:
Entamoeba histolytica HMl-ISS strain was used for the experiment. The cells were grown in tissue culture medium TYI-S-33 containing trypticase, yeast extract, iron and serum along with 100 units/ml penicillin and […] streptomycin sulfate. 500,000 amoebae were incubated in 2 mls of media. The drugs were added to the required final concentration. The total number of amoebae was counted every 24 hours after the addition of drugs using light microscope. Growth was monitored over a period of 72 hours.

A further data set deals with CHO non-K1 cells. Nature of the data set: DNA replication assay in permeabilized CHO non-K1 cells. The data set is classed as cell-based. The settings on record: phosphokanamycin 100 μM, phosphoneomycin 10 μM (FIG. 7). Here is the method: CHO non-K1 cells were used for the DNA replication assay. Cells were grown to density of 2×10^7 cells/plate in MEM medium supplemented with fetal calf serum. The cells were in log phase and unsynchronized. The plates were washed three times with cold MEM medium and cells were scraped off the plates into eppendorf tubes. The cells were centrifuged at 2000 rpm for 3 mm at 4° C. From each plate approximately 100 μl of cells were obtained. The cell pellet was resuspended in an equal volume of replication buffer [100 mM HEPES (pH 7.8), 0.2 mM dGTP, 0.2 mM DATP, 0.2 mM dTTP, 0.4 mM GTP, 0.4 mM CTP, 0.4 mM UTP, 8 mM ATP, 20 mM MgCl2, 0.2 mg/ml BSA, 2 mM DTT, 30% glycerol]. The cell suspension (20 μl) was aliquoted to individual tubes. Aminoglycosides and phosphoaminoglycosides were then added to the required final concentration. The cells were permeabilized by the addition of 0.5 μl of 20% NP-40 detergent. To monitor replication, 2 μl of α[^32 P] dCTP (3000-6000 Ci/mmole activity) was added. The cells were incubated at 37° C. for 10 min and the reaction was stopped by addition of 200 μl of stop buffer [50 mM TrisCl (pH 8.0), 10 mM EDTA, 400 mM NaCl, 1% SDS]. The cells were further incubated at 37° C. for 2 hours.
The DNA was sheared by passing 5-10 times through a 23 gauge needle. […] After drying, the radioactivity was measured using a liquid scintillation counter (Beckman).

The subject of data set [1] is Human PC3 (prostate cancer) cells. As to the kind of experiment: Human PC3 subcutaneous tumors in nude, athymic mice, intratumoral injection. The data set is classed as in vivo. Here is the method:
Human PC3 (prostate cancer) cells were implanted subcutaneously in nude, athymic mice. Following tumor development to a size of approximately 200 cubic millimeters, tumors were injected directly with 50 μl of 1.3 mM phosphokanamycin every Monday, Wednesday, and Friday for two weeks.
CRL: CD-lnu/nu Br mice (nude, athymic) were obtained from Charles River Animal Resources Facility. Human PC3 cells were grown in RPMI 1640 media containing 10% serum, 200 μl of this cell culture was diluted 1:1 with Matrigel (Collaborative Biomedical Products) such that the total number of cells after dilution were 2×10^6. The cells were then injected on the underside of the flank and the development of subcutaneous tumor size was monitored by measurement with Vernier calipers.
Therapy with the drugs was started when the tumor size reached 200 mm^3. The drugs were solubilized in PBS (0.35 g NaH2PO4, 1.06 g Na2HPO and 8.5 g in a total volume of 1 L, pH 7.2), pH was adjusted to 7.2 using phosphoric acid and filter sterilized before injection. 50 μl of the drug (1.3 mM phosphokanamycin) was administered by direct injection into the tumor every Monday, Wednesday, and Friday for two weeks. The tumor size was monitored by measurement with Vernier calipers. The mice were euthanized when the tumor size exceeded 1000 mm^3 or when the weight of the mice decreased by more than 15% of their starting weight. The tumor size was calculated using the following formula:
volume=[length×(width)^2]/2

The test system of the next data set is Leishmania chagasi. As to the kind of experiment: Leishmania chagasi culture growth. The data set is classed as cell-based. The settings on record: FIGS. 12A-B. Here is the method: Leishmania chagasi cells were grown in HO-MEM medium to a cell density of 1×10^6 cells/ml. 50 μl of drug were mixed with 50 μl of media in the first well of a 96 well micro titer plate. Serial, two-fold dilutions were then made by taking 50 μl of the solution in the first well and diluting it into the second well and this process was repeated through the 12 wells of an entire row of the 96 well plate. This gives a 2-fold difference in the concentration of the drug between the wells in that row. This procedure was repeated for all the inhibitors. 50 μl of Leishmania chagasi, at a cell density of 1×10^6 cells/ml, was then added to the wells. The micro titer plate was incubated at 30° C. under anaerobic conditions. Cells were counted under light microscope every 24 hours after addition of drugs.

“Also recorded” adds a separate entry of the source.

Consider `NC[C@H]1O[C@H](O[C@H]2[C@H](O)[C@@H](O[C@H]3O[C@H](CO)[C@@H](O)[C@H](N)[C@H]3O)[C@H](N)C[C@@H]2N)[C@H](O)[C@@H](OP(=O)(O)O)[C@@H]1O` [phosphokanamycin, 3′-phosphokanamycin], for which, in the data set on Entamoeba histolytica, the IC (100 (complete killing)) is 200 µM. In addition, in the data set with CHO non-K1 cells, the “effect on DNA synthesis (in words)” value is listed as “disrupted DNA synthesis”. The “effect on tumors (in words)” value in data set [1] (50 μl of 1.3 mM into the tumor Mon/Wed/Fri for two weeks) is “tumor cells were killed; also recorded: Tumors regress in size and ultimately disappear”. The “remote lesions (metastasis) after treatment” value in data set [1] (metastasis had occurred before treatment) was “no remote lesions are detected”. In addition, the “longevity of treated mice” value in data set [1] (relative to untreated controls) is reported as “significant longevity relative to the untreated controls”. The toxicity result in data set [1] (treatments lasting as long as 8 weeks) is reported as “no detectable toxicity”. Moreover, in the data set on Leishmania chagasi, the “killing of Leishmania cells (in words)” value is reported as “clearly effective in killing the cells”.

Source of the values: patent publication US6573060B1, “Methods and compositions for targeting DNA metabolic processes using aminoglycoside derivatives” (University of Virginia Patent Foundation, priority 1997, dated 2003).
